Laboratory results from patent US20230203126A1, “A COMPOSITION COMPRISING S-ARRESTIN PEPTIDES” (WORG PHARMACEUTICALS (HANGZHOU) CO., LTD., priority 2019, published 2023).

T1: HLA-DR3 (HLA-DRA and DRB1*0301) on CD11c+ dendritic cells of DR3tg mice (human, UniProt P01903 26-254; P79483 30-266)
T1 construct: whole, on cells; DR3tg mice express the HLA-DRB1*0301 molecule but not the mouse MHC-II molecule; also called MHC class II; MHC II molecules
T1 MHC II alpha: not shown
T1 MHC II beta: not shown

B1: 15N3K (peptide)
peptide: H-KKKVIFKKISRDKSVTIYLGKKK-NH2
notes: Synthetic S-Ag derived peptide with KKK added at both ends
B2: 17JK (peptide)
peptide: H-KKKLTFRRDLYFSRVQVYKKK-NH2
notes: as for B1
B3: 9K1K (peptide)
peptide: H-KKKAFVEQVANVVLKKK-NH2
notes: Synthetic S-Ag (S-arrestin) derived peptide with KKK added at both ends

Target: T1, HLA-DR3 (HLA-DRA and DRB1*0301) on …
Test: in vivo MHC class II loading assay, DR3tg mice, read out by IFNy of peptide-specific CD4+ T cells
Conditions: not given
Description: (§1) FIG. 2: Peptide 17JK is correctly loaded on MHC class II in vivo. Response of peptide-specific CD4+ T cells towards peptide loaded in vivo on dendritic cells is shown. HLA-DR3-transgenic mice were injected subcutaneously with 100 µg of 17JK peptide. 2 h post injection, spleens were dissected and CD11c+ cells (dendritic cells) were isolated. These CD11c+ cells were co-cultured with peptide-specific CD4+ cells for 72 h at 37° C. IFNy was measured in the supernatant of these cultures to evaluate the response to peptide by the CD4+ T cells. (*** p<0.001 Mann-Whitney U-test)
as §1, with “FIG. 3:” for “FIG. 2:”, “Peptide 15N3K” for “Peptide 17JK”, “of 15N3K” for “of 17JK”, “peptide. 2h” for “peptide. 2 h”
DR3tg or DR2tg mice were injected with 100 µg of peptide in 100 µl PBS subcutaneously (s.c.) in the flank. Control animals received a s.c. injection of 100 µl PBS. After 2 hours, spleens were harvested and single-cell suspensions were prepared. […]

Molecule | binding result
B1 | binds
B2 | binds

system: SAg-specific hybridoma cells with fresh or fixed APC (VAVY) cells, MHCII; test: Antigen processing independent presentation system (APIPS) assay; format: cell-based, DR3tg mice; conditions: 10 or 25 µg/ml peptide, IL-2 ELISA after 48 h
Description: FIG. 10: Variants of peptide 15N3K are apitopes. The ability of variants of the 15N3K peptide to behave as apitopes (i.e. bind to an MHCII molecule and be presented to a T cell by an antigen-presenting cell without undergoing antigen processing) was tested using an APIPS assay. DR3tg mice were immunised with SAg and hybridoma’s were generated. 5*10^4 SAg-specific hybridoma cells were cultured with 5*10^4 fresh or fixed commercial APC (VAVY) cells. Cultures were stimulated with 10 or 25 µg/ml of peptide, as indicated in the graph. T cell activation was measured by IL-2 ELISA on supernatants collected after 48 h. The graph represents the mean of duplicate measurements ± SEM.
Apitopes (Antigen Processing-Independent epiTOPES) are capable of binding to an MHCII molecule and stimulating a response from SAg-specific T cells without further antigen processing. Variants of peptide 15N3K (SEQ ID NO: 3) were tested for their ability to bind to an MHCII molecule and be presented to a T cell hybridoma without further antigen processing in an in vitro antigen processing independent presentation system (APIPS) assay. In other words, peptides consisting of parts of peptide 15N3K and peptides with various degrees of sequence identity with peptide 15N3K were tested for their ability to behave as apitopes.
All but three of the peptides are apitopes.
Antigen-specific hybridoma clones were tested for their reactivity to the peptides, presented by fixed or not fixed (fresh) cells (APCs). 5x10^4 cells were cultured with 10 µg/ml and 25 µg/ml peptide and 5x10^4 fixed or fresh APCs. To fix APCs, cells were incubated with 0.5% paraformaldehyde (Merck, Darmstadt, Germany) (pH7) for 5 min at room temperature (RT). The fixation reaction was stopped by adding 0.4 M glycine (Sigma-Aldrich) and washing the cells in RPMI-10% FCS. After 48 h, antigen-induced IL-2 production was measured by ELISA (R&D Systems, Abingdon, UK).

Molecule | Apitope
KKKVIFKKISRDKSVKKK (H-KKKVIFKKISRDKSVKKK-NH2) [HIP-15B3-KKK, variant of peptide 15N3K] | No
MAASGKTSKSEPNHVIFKKISRDKSV TIYLGNRDYIDHVSQV (H-MAASGKTSKSEPNHVIFKKISRDKSVTIYLGNRDYIDHVSQV-NH2) [HIP-115, variant of peptide 15N3K] | Yes
KKKVIFKKISRDKSVTIYLKKK (H-KKKVIFKKISRDKSVTIYLKKK-NH2) [HIP-15BC-KKK, variant of peptide 15N3K] | Yes
VIFKKISRDKSVTIYL (H-VIFKKISRDKSVTIYL-NH2) [HIP-15BC, variant of peptide 15N3K] | Yes
KKISRDKSVTIYLG (H-KKISRDKSVTIYLG-NH2) [HIP-15E1, variant of peptide 15N3K] | Yes
VIFKKISRDKSVTI (H-VIFKKISRDKSVTI-NH2) [HIP-15B1, variant of peptide 15N3K] | Yes
VIFKKISRDKSV (H-VIFKKISRDKSV-NH2) [HIP-15B3, variant of peptide 15N3K] | No
KKKKKISRDKSVTIYLGKKK (H-KKKKKISRDKSVTIYLGKKK-NH2) [HIP-15E1-KKK, variant of peptide 15N3K] | Yes
KKKISRDKSVTIYLGKKK (H-KKKISRDKSVTIYLGKKK-NH2) [HIP-15G3-KKK, variant of peptide 15N3K] | Yes
IFKKISRDKSVTIYLG (H-IFKKISRDKSVTIYLG-NH2) [HIP-15CD, variant of peptide 15N3K] | Yes
KKKVIFKKISRDKSVTIKKK (H-KKKVIFKKISRDKSVTIKKK-NH2) [HIP-15B1-KKK, variant of peptide 15N3K] | Yes
ISRDKSVTIYLG (H-ISRDKSVTIYLG-NH2) [HIP-15G3, variant of peptide 15N3K] | No
KKKIFKKISRDKSVTIYLGKKK (H-KKKIFKKISRDKSVTIYLGKKK-NH2) [HIP-15CD-KKK, variant of peptide 15N3K] | Yes

target: T2, HLA-DR2 (DRA*0101 and DRB1*1501) on CD11c+ dendritic cells of DR2tg mice (human, UniProt P01903 26-254; P01911 30-266); test: in vivo MHC class II loading assay, DR2tg mice, read out by IFNy of peptide-specific CD4+ T cells; conditions: not given
T2 construct: whole, on cells; DR2tg mice express the HLA-DRB1*1501 molecule but not the mouse MHC class II molecule; also called MHC class II; MHC II molecules
Description: as §1, with “FIG. 1:” for “FIG. 2:”, “Peptide 9K1K” for “Peptide 17JK”, “shown. HLA-DR2-transgenic” for “shown. HLA-DR3-transgenic”, “of 9K1K” for “of 17JK”, “and CD11 c+” for “and CD11c+”, “cells. (* p<0.05” for “cells. (*** p<0.001”
DR3tg or DR2tg mice were injected with 100 µg of peptide in 100 µl PBS subcutaneously (s.c.) in the flank. Control animals received a s.c. injection of 100 µl PBS. After 2 hours, spleens were harvested and single-cell suspensions were prepared. CD11 c+ cells were positively selected using CD11c microbeads according to the manufacturer’s instructions (Miltenyi Biotec, Bergisch Gladbach, Germany). Average purities of >92% were reached. […] After 72 hours, supernatant of these co-cultures was collected and CD4+ T cell activation was analysed by IFNy ELISA (R&D Systems, Abingdon, UK). In a parallel experiment, CD4+ T cell responses towards peptide added in vitro were assessed to make sure the T cells recognize the peptides presented by the CD11 c+ cells.

Molecule | binding result
B3 | binds
